Earlier results on one compound are cited in patent US20200281958A1, “STABLE FORMULATIONS FOR THE ORAL ADMINISTRATION OF AMPHOTERICIN B AND RELATED METHODS” (priority 2015, published 2020).

For data set [1] the following is noted: crystalline.
The test system of data set [2] is latently infected T cell lines.
Data set [3] concerns monocytic cell lines and primary macrophages/monocytes.

Regarding `C[C@@H]1[C@H](O)[C@@H](C)/C=C/C=C/C=C/C=C/C=C/C=C/C=C/[C@H](O[C@@H]2O[C@H](C)[C@@H](O)[C@H](N)[C@@H]2O)C[C@@H]2O[C@](O)(C[C@@H](O)C[C@@H](O)[C@H](O)CC[C@@H](O)C[C@@H](O)CC(=O)O[C@H]1C)C[C@H](O)[C@H]2C(=O)O` (relative stereo) [amphotericin B, [1R-(1R*,3S*,5R*,6R*,9R*,11R*,15S*,16R*,17R*,18S*,19E,21E,23E,25E, 27E,29E,31 E,33R*,35S*,36R*,37S)]-33-[(3-amino-3,6-dideoxy-β-D-mannopyranosyl)oxy] 1,3,5,6,9,11, 17,37-octahydroxy-15,16,18-trimethyl-13-oxo-14,39-dioxabicyclo-[33.3.1] nonatriaconta-19,21, 23,25,27,29,3 1-heptaene-36-carboxylic acid], in data set [1], the solubility in water result was “insoluble in water”. The “direct reactivation of latently infected T cell lines” value in data set [2] (T cell lines alone) is “did not directly reactivate”. Moreover, the “HIV-1 reactivation in T cell lines” value in data set [2] (co-culture with primary macrophages) is “partial HIV-1 reactivation”. Besides, the “reactivation of HIV-1 replication” value in data set [3] was “reactivate HIV-1 replication”.
